According to US20250114374A1, “BCL-2 INHIBITORS” (Newave Pharmaceutical Inc., priority 2021, published 2025):
Like-named read-outs stand apart in the source and are kept apart here.

Experiments:
[1] = system: xenograft models of small-cell lung cancer and acute lymphoblastic leukemia; settings: oral administration, alone; cited from earlier work
Bcl-w = target: T1, Bcl-w (Homo sapiens, UniProt Q92843); settings: cited from earlier work
T1 sequence (Q92843 1-193): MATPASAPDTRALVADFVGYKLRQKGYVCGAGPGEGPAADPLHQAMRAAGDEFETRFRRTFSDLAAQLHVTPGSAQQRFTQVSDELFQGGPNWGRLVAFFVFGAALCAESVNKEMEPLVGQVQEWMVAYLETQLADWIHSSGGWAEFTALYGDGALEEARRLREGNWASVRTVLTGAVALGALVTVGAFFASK

circulating platelets = settings: cited from earlier work
[2] = cited from earlier work
[3] = system: cells from lymphoma and small-cell lung carcinoma lines, primary patient-derived cells; settings: single agent; cited from earlier work
CLL = settings: read-out: average EC50, apoptosis; cited from earlier work
[4] = system: DoHH2, Granta-519 xenografts; settings: single agent or in combination with Bendamustine and other agents; cited from earlier work
RS4; 11 cells = settings: cited from earlier work
Mcl-1 = Mcl-1 (Homo sapiens, UniProt Q07820); settings: cited from earlier work
Sequence of Mcl-1 (Q07820 whole entry): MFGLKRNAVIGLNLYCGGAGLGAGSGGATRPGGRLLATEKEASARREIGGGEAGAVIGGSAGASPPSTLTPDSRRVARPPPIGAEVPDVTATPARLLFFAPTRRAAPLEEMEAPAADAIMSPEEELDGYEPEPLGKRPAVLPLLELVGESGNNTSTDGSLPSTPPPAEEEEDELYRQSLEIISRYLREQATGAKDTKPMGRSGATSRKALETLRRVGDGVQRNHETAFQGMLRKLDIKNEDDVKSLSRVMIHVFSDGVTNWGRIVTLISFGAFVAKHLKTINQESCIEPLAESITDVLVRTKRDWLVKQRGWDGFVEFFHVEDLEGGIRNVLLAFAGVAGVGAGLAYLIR

RS4; 11 xenografts = settings: single dose of 100 mg/kg; cited from earlier work
[5] = system: RS4; 11 with G101V mutation; experiment: In vitro anti-proliferation assay (ATPlite luminescence) in BCL-2-dependent ALL cell line RS4;11 with G101V mutation; assay type: cell-based; settings: read-out: RS411-G101V IC50
How it was run: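 IC50 came from luminescent ATP quantification (ATPlite) following cell lysis. Compound dose ranges were applied for roughly 72 h to about 1×10^4 G101V-mutant RS4;11 cells per well, in 10% FBS medium.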

[6] = system: CLL who have 17p deletion; settings: Human Phase I and II, CLL with 17p deletion; cited from earlier work
[7] = cellular anti-proliferative IC50, about 72 hours, medium with 10% FBS, ATPlite

In the case of `CC1(C)CCC(c2ccc(Cl)cc2)=C(CN2CCN(c3ccc(C(=O)NS(=O)(=O)c4ccc(N[C@H](CCN5CCOCC5)CSc5ccccc5)c(S(=O)(=O)C(F)(F)F)c4)cc3)CC2)C1` [ABT-263], the tumor regression [1] is given as “complete tumor regressions”, the Ki (Bcl-w) is given as at most 0.001 µM and the “number of circulating platelets” value (circulating platelets; clinical trial) is given as “rapid, concentration-dependent decrease”. The dose-limiting toxicity (circulating platelets; single-agent treatment in patients) was “thrombocytopenia”.
For `CN(C)CC[C@H](CSc1ccccc1)Nc1ccc(S(=O)(=O)NC(=O)c2ccc(N3CCN(Cc4ccccc4-c4ccc(Cl)cc4)CC3)cc2)cc1[N+](=O)[O-]` [ABT-737], the aqueous solubility [2] is listed as “low” and the cell killing [3] is listed as “single-agent-mechanism-based killing”.
For `CC1(C)CCC(CN2CCN(c3ccc(C(=O)NS(=O)(=O)c4ccc(NCC5CCOCC5)c([N+](=O)[O-])c4)c(Oc4cnc5[nH]ccc5c4)c3)CC2)=C(c2ccc(Cl)cc2)C1` [ABT-199], the EC50 (CLL) is given as 0.003 µM, the xenograft growth [4] is given as “inhibits xenograft growth” and the EC50 (RS4; 11 cells; RS4, 11 cells) is given as 0.008 µM. The “apoptosis in RS4; 11 cells” value (RS4; 11 cells; cytochrome c release, caspase activation, accumulation of sub-G0/G1 DNA) was “rapid apoptosis”, the “activity to Mcl-1” value (Mcl-1) was “no activity” and the “maximal tumor growth inhibition” value (RS4; 11 xenografts) was 95%. The tumor growth delay (RS4; 11 xenografts) was 152%, the IC50 ([5]; Homo sapiens, RS4-11, 72 h) was 0.783 µM and the clinical efficacy [6] was “highly efficacious”.
`Cc1ccccc1[C@@H]1CN([C@H]2CCOc3c2ccc(F)c3F)CCN1C1CC2(CCN(c3ccc(C(=O)NS(=O)(=O)c4cc5c(c([N+](=O)[O-])c4)N[C@H](C4CCOCC4)CO5)c(N4c5cc6cc[nH]c6nc5O[C@H]5COCC[C@@H]54)c3)CC2)C1` [Example 196, 4-{2-[(2R)-4-[(4S)-7,8-difluoro-3,4-dihydro-2H-1-benzopyran-4-yl]-2-(2-methylphenyl)piperazin-1-yl]-7-azaspiro[3.5]nonan-7-yl}-2-[(3R,8S)-2,5-dioxa-9,15,17-triazatetracyclo[8.7.0.0^{3,8}.0^{12,16}]heptadeca-1(10),11,13,16-tetraen-9-yl]-N-[(3R)-5-nitro-3-(oxan-4-yl)-3,4-dihydro-2H-1,4-benzoxazin-7-ylsulfonyl]benzamide] gave an IC50 [5, 7] of 0.0923 µM.
Work on `CC(C)Oc1ccccc1[C@@H]1CN([C@@H]2CCOc3cc(F)c(F)cc32)CCN1C1CC2(CCN(c3ccc(C(=O)NS(=O)(=O)c4cc5c(c([N+](=O)[O-])c4)N[C@H](C4CCOCC4)CO5)c(N4c5cc6cc[nH]c6nc5O[C@H]5COCC[C@@H]54)c3)CC2)C1` [Example 211, 4-{2-[(2R)-4-[(4R)-6,7-difluoro-3,4-dihydro-2H-1-benzopyran-4-yl]-2-(2-isopropoxyphenyl)piperazin-1-yl]-7-azaspiro[3.5]nonan-7-yl}-2-[(3R,8S)-2,5-dioxa-9,15,17-triazatetracyclo[8.7.0.0^{3,8}.0^{12,16}]heptadeca-1(10),11,13,16-tetraen-9-yl]-N-[(3R)-5-nitro-3-(oxan-4-yl)-3,4-dihydro-2H-1,4-benzoxazin-7-ylsulfonyl]benzamide] yielded an IC50 [5, 7] of 0.0872 µM.
In the case of `CC[C@H](c1ccc(F)c(F)c1)N1CCN(C2CC3(CCN(c4ccc(C(=O)NS(=O)(=O)c5cc6c(c([N+](=O)[O-])c5)N[C@H](C5CCOCC5)CO6)c(N5c6cc7cc[nH]c7nc6O[C@H]6COCC[C@@H]65)c4)CC3)C2)[C@H](c2ccccc2OC(C)C)C1` [Example 246, 4-(2-((R)-4-((R)-1-(3,4-difluorophenyl)propyl)-2-(2-isopropoxyphenyl)piperazin-1-yl)-7-azaspiro[3.5]nonan-7-yl)-N-(((R)-5-nitro-3-(tetrahydro-2H-pyran-4-yl)-3,4-dihydro-2H-benzo[b][1,4]oxazin-7-yl)sulfonyl)-2-((5aS,9aR)-6,7,9,9a-tetrahydro-1H-pyrano[3,4-b]pyrrolo[3′,2′:5,6]pyrido[3,2-e][1,4]oxazin-5(5aH)-yl)benzamide], the IC50 ([5]; Homo sapiens, RS4-11, 72 h) is reported as 0.209 µM.
